Test results from patent US12698306B2, “Bile acid-GCPII inhibitor conjugates to treat inflammatory diseases, including inflammatory bowel disease (IBD)” (The Johns Hopkins University, priority 2020, dated 2026).

Experiments:
[1] = system: dextran sodium sulfate (DSS)-induced colitis; experiment: Dextran sodium sulfate (DSS)-induced colitis model, disease activity index (DAI); assay type: in vivo, mice (C57Bl/6NHsd); details: for anti-IBD activity: disease activity index (DAI): once daily oral
Experimental: (§1) Colitis was induced using either 2.5% DSS (FIG. 1A, FIG. 1B, and FIG. 1C) or 4.0% DSS (FIG. 1D, FIG. 1E, FIG. 1F, FIG. 1G, and FIG. 1H) resulting in the characteristic development of diarrhea, rectal bleeding and body weight loss. These parameters were evaluated daily, scored and summated to compute a disease activity index (DAI). Mice received once daily oral treatment with test article or vehicle beginning on Study Day 0 and continuing through Study Day 7. […] All data depicted as mean+/−SEM. 2-way ANOVA, *p<0.05, **p<0.01, ***p<0.001;
as §1, with “using” for “using either 2.5% DSS (FIG. 1A, FIG. 1B, and FIG. 1C) or”, “DSS” for “DSS (FIG. 1D, FIG. 1E, FIG. 1F, FIG. 1G, and FIG. 1H)”, “6.” for “7.”
(§2) Six-week old male C57Bl/6NHsd mice were challenged with 4.0% DSS in drinking water from Study Day 0-5 followed by exposure to freshwater, inducing severe acute colitis. Oral (S)-LTP592 was administered once daily beginning on study day 0 at 1 mg/kg, 10 mg/kg and 100 mg/kg 2-PMPA molar equivalent doses. (FIG. 4A) 100 mg/kg eq. […] (S)-LTP592, while GCPII was only 40% inhibited at the non-efficacious dose of 1 mg/kg eq. (n=8/group; **p<0.01 2-tailed t-test). (FIG. 4C) Strikingly, 100 mg/kg eq. […] (FIG. 4D, FIG. 4E, and FIG. 4F) Efficacy of 100 mg/kg eq. (S)-LTP592 in the DSS-colitis model was driven by improvements in (FIG. 4C) stool score and (FIG. 4D) bleeding score (n=15/group; ***p<0.001, *p<0.05 2-way ANOVA);
(§3) Six-week old male C57Bl/6NHsd mice were challenged with 4.0% DSS in drinking water from study day 0-6 followed by exposure to freshwater. Oral (S)-LTP592 was administered once daily beginning on study day 0 at 100 mg/kg 2-PMPA molar equivalent doses. (FIG. 5A, FIG. 5B, and FIG. 5C) 100 mg/kg eq. […] (FIG. 5D, FIG. 5E, FIG. 5F, and FIG. 5G) A subset of mice (n=8/group) were euthanized on study day 5, prior to fulminant colitis. Their colons were harvested and processed for flow cytometry. […] All DSS-induced changes in myeloid inflammatory cell populations were attenuated by (S)-IBD3540 treatment (n=8-9/group, **p<0.01, *p<0.05, 2-tailed t-test).
Six- to eight-week-old male C57BM6NHsd mice were acquired from Harlan Laboratories/Envigo (Indianapolis, IN). Animals were housed in the Johns Hopkins animal facility under controlled temperature (25° C.) and photoperiod (12-hour-light/12-hour-dark cycle) with access to standard diet and water (or specified DSS-containing drinking water) ad libitum. All animal studies were approved by the Animal Care and Use Committee of Johns Hopkins University, Baltimore, MD and adhered to all of the applicable institutional and governmental guidelines for the humane treatment of laboratory animals. Mice were housed 4-5 per cage and allowed to acclimate to their environment for at least 5 days before inclusion in experiments. Mice (n=5-30/group) were randomized by body weight into equivalent experimental groups: (a) DSS with vehicle or (b) DSS with test article. Acute colitis was induced by administration of 2.5%-4.0% (w/v) DSS (MW 40,000-50,000; Affymetrix Santa Clara, CA) in the drinking water for 5 days, followed by exposure to freshwater for two days. Daily oral (PO) dosing of vehicle or test article was initiated on study day 0 and was continued until sacrifice on study day 7. […]

recombinant human GCPII = recombinant human GCPII (Homo sapiens, UniProt Q04609); experiment: GCPII inhibition, radiosubstrate based assay; assay type: biochemical; details: GCPII IC50 ratio, (S)- vs (R)-enantiomer
Experimental: FIG. 3A, FIG. 3B, FIG. 3C, and FIG. 3D show IC50 values for selected bile acid GCPII inhibitor conjugates. IC50s were determined for selected inhibitors using a previously described radiosubstrate based assay employing recombinant human GCPII. Rojas et al., 2002.
Glutamate Carboxypeptidase II (GCPII) is a metallopeptidase that catalyzes the hydrolysis of N-acetylated aspartate-glutamate (NAAG) to N-acetyl aspartate (NAA) and glutamate and cleaves terminal glutamate moieties sequentially from folate polyglutamate (Ristau et al., 2013; Mesters et al, 2006; Slusher et al, 2013). In certain embodiments, the presently disclosed compounds of formula (I) are GCPII inhibitors. As used herein, a GCPII inhibitor is a molecule that decreases or inhibits the activity of GCPII. The modulation of the activity of GCPII may be detected by use of an assay for the intrinsic N-acetylated alpha-linked acidic dipeptidase (AALADase) activity of GCPII (Tang et al, 2003; Robinson et al 1987: Lupoid et al., 2002; U.S. Patent App. Pub. No. 20110064657). Inhibition curves may be determined using semi-log plots and IC50 values determined at the concentration at which enzyme activity was inhibited by 50%.

GCPII = biological target: T1, GCPII (Mus musculus, UniProt O35409); experiment: GCPII enzymatic activity in murine colon tissue (radioenzymatic assay); assay type: in vivo, mice; details: colon collected 4-hour post dose on study day 6
T1 construct: from tissue; host or cells: mouse proximal colon
Experimental: as §2
A 5-mm length location-matched segment of proximal colon was harvested and flash-frozen following euthanasia on study day 6 of DSS-induced colitis, 4-hours after the final dose with vehicle or compound. Glutamate carboxypeptidase activity was measured using a radioenzymatic assay that was optimized and described previously. Rojas et al., 2002; Robinson et al., 1987.

[2] = system: myeloid inflammatory cell populations in colon; experiment: Flow cytometry of colonic lamina propria mononuclear cells in DSS colitis; assay type: in vivo, mice; details: 4.0% DSS, 100 mg/kg eq. oral, study day 5
Experimental: as §3
On DSS study day 5, a subset of mice (n=8-9/group) were euthanized and colons were processed for flow cytometry. Specifically, the distal 3 cm of colon was separated, mesenteric fat dissected away and intestinal contents removed. Then colon was transected longitudinally, washed with PBS, and minced thoroughly. Minced colon tissues were transferred into 5 ml HBSS with 10 mM HEPES containing 5% FBS and 0.2 mg/ml collagenase D (Sigma). Tissues were digested at 37° C. for 20 min with constant agitation (250 r.p.m.), then vigorously vortexed for 20 s. The resulting cell suspension containing LPMCs was filtered through a 70-μm nylon cell strainer and washed with 10 ml PBS. […]

[3] = 4.0% DSS, Study Day 0-6, DAI on Study Days 4 through 6
[4] = 2.5% or 4.0% DSS, Study Day 0-7, 10 to 100 mg/kg 2-PMPA molar equivalent dose, DAI on Study Days 6 and 7
[5] = 4.0% DSS, 100 mg/kg eq. oral, study day 6

T1 sequence (O35409 whole entry): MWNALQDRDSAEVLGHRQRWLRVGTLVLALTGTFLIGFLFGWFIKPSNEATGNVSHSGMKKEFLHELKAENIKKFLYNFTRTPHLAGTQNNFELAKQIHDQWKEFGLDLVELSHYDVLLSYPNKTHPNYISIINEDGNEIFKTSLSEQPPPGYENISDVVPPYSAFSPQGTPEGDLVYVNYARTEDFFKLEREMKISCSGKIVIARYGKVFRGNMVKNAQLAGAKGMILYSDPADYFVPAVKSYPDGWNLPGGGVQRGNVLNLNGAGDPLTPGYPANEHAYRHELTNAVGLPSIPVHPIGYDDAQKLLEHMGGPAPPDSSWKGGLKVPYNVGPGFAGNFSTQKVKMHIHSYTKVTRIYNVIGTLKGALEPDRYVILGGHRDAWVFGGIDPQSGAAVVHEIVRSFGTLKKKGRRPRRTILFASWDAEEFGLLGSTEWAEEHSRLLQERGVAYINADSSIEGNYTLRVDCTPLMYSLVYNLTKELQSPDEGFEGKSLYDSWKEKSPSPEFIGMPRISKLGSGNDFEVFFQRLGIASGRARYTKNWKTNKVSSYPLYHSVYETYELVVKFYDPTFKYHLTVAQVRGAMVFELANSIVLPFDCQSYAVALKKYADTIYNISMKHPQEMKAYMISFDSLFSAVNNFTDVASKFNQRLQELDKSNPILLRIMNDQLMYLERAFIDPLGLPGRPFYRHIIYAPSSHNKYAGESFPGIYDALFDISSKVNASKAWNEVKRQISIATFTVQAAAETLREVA
Chain of recombinant human GCPII (Q04609 whole entry): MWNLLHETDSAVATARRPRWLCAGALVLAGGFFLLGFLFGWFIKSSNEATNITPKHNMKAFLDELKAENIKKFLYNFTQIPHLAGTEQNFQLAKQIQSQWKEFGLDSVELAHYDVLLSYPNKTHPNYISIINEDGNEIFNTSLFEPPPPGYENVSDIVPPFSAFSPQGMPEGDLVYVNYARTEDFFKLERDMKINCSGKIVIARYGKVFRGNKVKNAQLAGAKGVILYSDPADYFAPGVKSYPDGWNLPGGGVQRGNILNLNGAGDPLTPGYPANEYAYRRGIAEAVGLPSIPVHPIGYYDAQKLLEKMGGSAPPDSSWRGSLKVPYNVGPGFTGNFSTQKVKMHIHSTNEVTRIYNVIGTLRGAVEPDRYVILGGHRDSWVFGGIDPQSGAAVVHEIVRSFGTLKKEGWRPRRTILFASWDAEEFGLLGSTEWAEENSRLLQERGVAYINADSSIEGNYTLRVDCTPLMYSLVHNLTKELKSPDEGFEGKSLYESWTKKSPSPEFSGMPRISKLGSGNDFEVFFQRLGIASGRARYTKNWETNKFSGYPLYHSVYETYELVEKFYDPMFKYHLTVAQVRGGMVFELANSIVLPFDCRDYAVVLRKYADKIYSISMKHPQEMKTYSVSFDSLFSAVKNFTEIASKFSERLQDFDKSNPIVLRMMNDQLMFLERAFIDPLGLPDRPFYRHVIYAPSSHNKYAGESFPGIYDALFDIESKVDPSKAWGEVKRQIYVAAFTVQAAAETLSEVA

CC(C)C[C@H](NC(=O)N[C@@H](CCC(=O)OCOC(=O)CC[C@@H](C)[C@H]1CCC2C3CC[C@@H]4C[C@H](O)CC[C@]4(C)C3C[C@H](O)[C@@]21C)C(=O)O)C(=O)O (stereo partly drawn) [IS-102-138, (2S,6S,16R)-6-Carboxy-16-((3R,10S,12S,13R,17R)-3,12-dihydroxy-10,13-dimethylhexadecahydro-1H-cyclopenta[a]phenanthren-17-yl)-2-isobutyl-4,9,13-trioxo-10,12-dioxa-3,5-diazaheptadecanoic acid]
anti-IBD activity: disease activity index (DAI) [1, 3]: significant reductions in DAI

C[C@H](CCC(=O)OCOC(=O)CCC(CP(=O)(O)O)C(=O)O)C1CCC2C3C(C[C@H](O)[C@@]21C)[C@@]1(C)CC[C@@H](O)C[C@H]1C[C@H]3O (mixture of isomers) [LTP588, 5-Oxo-2-(phosphonomethyl)-5-((((4R)-4-((3R,7R,10S,12S,13R)-3,7,12-trihydroxy-10,13-dimethylhexadecahydro-1H-cyclopenta[a]phenanthren-17-yl)pentanoyl)oxy)methoxy) pentanoic acid]
anti-IBD activity: disease activity index (DAI) [1, 4]: inactive

C[C@H](CCNC(=O)CCC(CP(=O)(O)O)C(=O)O)[C@H]1CCC2C3CC[C@@H]4C[C@H](O)CC[C@]4(C)C3C[C@H](O)[C@@]21C (stereo partly drawn) [IS-101-077, 5-(((3R)-3-((3R,10S,12S,13R,17R)-3,12-Dihydroxy-10,13-dimethylhexadecahydro-1H-cyclopenta[a]phenanthren-17-yl)butyl)amino)-5-oxo-2-(phosphonomethyl)pentanoic acid]
anti-IBD activity: disease activity index (DAI) [1, 4]: significant reductions in DAI

C[C@H](CCC(=O)OCOC(=O)CCC(CP(=O)(O)O)C(=O)O)C1CCC2C3C(CC[C@@]21C)[C@@]1(C)CC[C@@H](O)C[C@H]1C[C@@H]3O (stereo partly drawn) [LTP1054, 5-((((4R)-4-((3R,7S,12S,13R)-3,12-Dihydroxy-10,13-dimethylhexadecahydro-1H-cyclopenta[a]phenanthren-17-yl)pentanoyl)oxy)methoxy)-5-oxo-2-(phosphonomethyl) pentanoic acid]
anti-IBD activity: disease activity index (DAI) [1, 4]: inactive

C[C@H](CCNC(=O)CCC(CP(=O)(O)O)C(=O)O)[C@H]1CCC2C3C(CC[C@@]21C)[C@@]1(C)CC[C@@H](O)C[C@H]1C[C@@H]3O (stereo partly drawn) [IS-101-020, 5-(((3R)-3-((3R,7S,10S,13R,17R)-3,7-Dihydroxy-10,13-dimethylhexadecahydro-1H-cyclopenta[a]phenanthren-17-yl)butyl)amino)-5-oxo-2-(phosphonomethyl)pentanoic acid]
anti-IBD activity: disease activity index (DAI) [1, 4]: significant reductions in DAI

C[C@H](CCC(=O)OCOC(=O)CC[C@H](CP(=O)(O)O)C(=O)O)C1CCC2C3CC[C@@H]4C[C@H](O)CC[C@]4(C)C3C[C@H](O)[C@@]21C (stereo partly drawn) [(S)-LTP592]
bleeding score ([1]; 4.0% DSS, 100 mg/kg eq. oral): improvements | stool score ([1]; 4.0% DSS, 100 mg/kg eq. oral): improvements | colon histology (scored by a blinded pathologist) [1, 5]: significantly improved | colon length [1, 5]: normalization of colon length | number and depth of ulcerations and degree of inflammatory infiltration [1, 5]: reduced | efficacy in DSS colitis ([1]; 4.0% DSS, oral once daily, 1 mg/kg eq.): non-efficacious | efficacy in DSS colitis ([1]; 4.0% DSS, oral once daily, 10 mg/kg eq.): effective | colitis severity (DAI) ([1]; 4.0% DSS, oral once daily, 100 mg/kg eq., as early as study day 3): significantly decreased | potency relative to (R)-LTP592 (recombinant human GCPII): 150 fold | inhibition of GCPII enzymatic activity in colon tissue (GCPII; 1 mg/kg eq. oral): 40% | inhibition of GCPII enzymatic activity in colon tissue (GCPII; 10 mg/kg eq. oral): > 75% | inhibition of GCPII enzymatic activity in colon tissue (GCPII; 100 mg/kg eq. oral): > 75% | DSS-induced changes in myeloid inflammatory cell populations (CD11b+ white blood cells, neutrophils, monocytes, transitioning monocytes) [2]: attenuated

C[C@H](CCC(=O)OCOC(=O)c1ccc(CC(CCC(=O)NO)C(=O)O)cc1)C1CCC2C3CC[C@@H]4C[C@H](O)CC[C@]4(C)C3C[C@H](O)[C@@]21C (some centres unmarked) [TT-220420]
anti-IBD activity: disease activity index (DAI) [1, 3]: significant reductions in DAI

C[C@H](CCC(=O)OCOC(=O)CCC(CP(=O)(O)O)C(=O)O)C1CCC2C3CC[C@@H]4C[C@H](O)CC[C@]4(C)C3CC[C@@]21C (mixture of isomers) [LTP582, 5-((((4R)-4-((3R,10S,13R)-3-Hydroxy-10,13-dimethylhexadecahydro-1H-cyclopenta[a]phenanthren-17-yl)pentanoyl)oxy)methoxy)-5-oxo-2-(phosphonomethyl)pentanoic acid]
anti-IBD activity: disease activity index (DAI) [1, 4]: inactive
